Assay: xn = mol fraction of the nth substance listed
Details: 101 kPa

CC[NH2+]CC.O=[N+]([O-])[O-] + CC[NH3+].O=[N+]([O-])[O-]
Details | electrical conductivity [S/m] | viscosity [mPa·s]
293.15 K, x1 = 0.0499 | 1.8 | 44.4
293.15 K, x1 = 0.1499 | 1.69 | 45.4
293.15 K, x1 = 0.1999 | 1.55 | 49.7
293.15 K, x1 = 0.2501 | 1.59 | 46
293.15 K, x1 = 0.2998 | 1.55 | 45.6
298.15 K, x1 = 0.0499 | 2.1 | 37.2
298.15 K, x1 = 0.0998 | 2.02 | 36.2
298.15 K, x1 = 0.1499 | 1.99 | 37.9
298.15 K, x1 = 0.1999 | 1.83 | 41.3
298.15 K, x1 = 0.2998 | 1.87 | 37.9
298.15 K, x1 = 0.3501 | 1.72 | 41.2
303.15 K, x1 = 0.0499 | 2.43 | 31.5
303.15 K, x1 = 0.0998 | 2.34 | 30.6
303.15 K, x1 = 0.1499 | 2.31 | 31.9
303.15 K, x1 = 0.1999 | 2.12 | 34.7
303.15 K, x1 = 0.2501 | 2.18 | 32.2
303.15 K, x1 = 0.2998 | 2.18 | 31.9
303.15 K, x1 = 0.3501 | 2 | 34.5
308.15 K, x1 = 0.0998 | 2.69 | 26.2
308.15 K, x1 = 0.1499 | 2.64 | 27.3
308.15 K, x1 = 0.1999 | 2.44 | 29.4
308.15 K, x1 = 0.2501 | 2.5 | 27.4
308.15 K, x1 = 0.2998 | 2.5 | 27.2
308.15 K, x1 = 0.3501 | 2.3 | 29.2
313.15 K, x1 = 0.0499 | 3.16 | 23.2
313.15 K, x1 = 0.0998 | 3.06 | 22.4
313.15 K, x1 = 0.1499 | 3.01 | 23.4
313.15 K, x1 = 0.2501 | 2.84 | 23.4
313.15 K, x1 = 0.2998 | 2.84 | 23.3
318.15 K, x1 = 0.0499 | 3.55 | 20.2
318.15 K, x1 = 0.1999 | 3.15 | 21.8
318.15 K, x1 = 0.2501 | 3.2 | 20.4
318.15 K, x1 = 0.3501 | 2.97 | 21.6
323.15 K, x1 = 0.0499 | 3.97 | 17.8
323.15 K, x1 = 0.0998 | 3.85 | 17.3
323.15 K, x1 = 0.2501 | 3.59 | 17.8
323.15 K, x1 = 0.2998 | 3.59 | 17.8
323.15 K, x1 = 0.3501 | 3.34 | 18.8
328.15 K, x1 = 0.0499 | – | 15.7
328.15 K, x1 = 0.1499 | – | 15.8
328.15 K, x1 = 0.1999 | – | 16.7
328.15 K, x1 = 0.2501 | – | 15.7
328.15 K, x1 = 0.3501 | – | 16.5
333.15 K, x1 = 0.0499 | – | 13.9
333.15 K, x1 = 0.0998 | – | 13.6
333.15 K, x1 = 0.1499 | – | 14
333.15 K, x1 = 0.1999 | – | 14.7
333.15 K, x1 = 0.2501 | – | 13.9
333.15 K, x1 = 0.2998 | – | 13.9
333.15 K, x1 = 0.3501 | – | 14.6
338.15 K, x1 = 0.0499 | – | 12.5
338.15 K, x1 = 0.0998 | – | 12.1
338.15 K, x1 = 0.1499 | – | 12.5
338.15 K, x1 = 0.1999 | – | 13.1
338.15 K, x1 = 0.2501 | – | 12.5
338.15 K, x1 = 0.3501 | – | 13
343.15 K, x1 = 0.0998 | – | 10.8
343.15 K, x1 = 0.1999 | – | 11.9
343.15 K, x1 = 0.2501 | – | 11.2
343.15 K, x1 = 0.2998 | – | 10.9
343.15 K, x1 = 0.3501 | – | 11.7
348.15 K, x1 = 0.0998 | – | 9.8
348.15 K, x1 = 0.1499 | – | 10.1
348.15 K, x1 = 0.1999 | – | 10.7
348.15 K, x1 = 0.2501 | – | 10.1
348.15 K, x1 = 0.2998 | – | 9.6
348.15 K, x1 = 0.3501 | – | 10.5
353.15 K, x1 = 0.0499 | – | 9.2
353.15 K, x1 = 0.2501 | – | 9.14
353.15 K, x1 = 0.2998 | – | 8.69

CC[NH3+].O=[N+]([O-])[O-] + CC[NH+](CC)CC.O=[N+]([O-])[O-]
x2 = 0
Details | electrical conductivity [S/m] | viscosity [mPa·s]
303.15 K | 2.6 | 31
308.15 K | 2.97 | 26.5
318.15 K | 3.78 | 20
328.15 K | – | 15.6
333.15 K | – | 13.8
338.15 K | – | 12.5
343.15 K | – | 11.2
348.15 K | – | 10.2
353.15 K | – | 9.2

CCCC[NH3+].O=[N+]([O-])[O-] + CC[NH3+].O=[N+]([O-])[O-]
Details | electrical conductivity, x2 = 0.25 [S/m] | electrical conductivity, x2 = 0.5 [S/m] | electrical conductivity, x2 = 0.75 [S/m] | viscosity, x2 = 0.25 [mPa·s] | viscosity, x2 = 0.5 [mPa·s] | viscosity, x2 = 0.75 [mPa·s]
288.15 K | – | 0.646 | – | – | – | –
293.15 K | 0.507 | 0.792 | 1.2 | 104.4 | 82.3 | 62
298.15 K | 0.615 | 0.951 | 1.43 | 83.7 | 66.6 | 50.6
303.15 K | 0.742 | 1.13 | – | 68.1 | 54.7 | –
308.15 K | – | 1.33 | 1.95 | – | 45.6 | 35.5
313.15 K | 1.03 | 1.54 | 2.24 | 47 | 38.5 | 30.6
318.15 K | 1.2 | 1.77 | 2.55 | 39.5 | 32.7 | 26
323.15 K | – | 2.02 | 2.88 | – | 28.1 | 22.6
328.15 K | – | – | – | 29 | 24.4 | 19.8
333.15 K | – | – | – | – | 21.3 | 17.6
338.15 K | – | – | – | – | 18.7 | –
343.15 K | – | – | – | – | 16.6 | 13.8
348.15 K | – | – | – | 17.2 | 14.8 | 12.4
353.15 K | – | – | – | – | – | 11.3

From a compilation of properties of binary mixtures (doi:10.1021/acs.jpcb.5b11900)
